The text below walks through data of US9757355B2, “Oral dosage forms of cyclopropanecarboxylic acid {2-[(1S)-1-(3-ethoxy-4-methoxy-phenyl)-2-methanesulfonyl-ethyl]-3-oxo-2,3-dihydro-1H-isoindol-4-yl}-amide” (Celgene Corporation, priority 2011, dated 2017).

Data set [1] concerns TNF-α. Kind of data set: In vivo LPS-induced TNF-α production assay. The settings on record: Rattus norvegicus, 1.5 h; p.o.; male CD rats, 0.05 mg/kg LPS, blood 90 minutes after LPS challenge; read-out: ED50, TNF-α levels in rat plasma. The procedure: Male CD rats procured from Charles River Laboratories at seven weeks of age are allowed to acclimate for one week prior to use. A lateral tail vein is cannulated percutaneously with a 22-gage over-the-needle catheter under brief isoflurane anesthesia. Rats are administered a PDE4 inhibitor of the invention either by intravenous injection via the tail vein catheter or oral gavage 15 to 180 min prior to injection of 0.05 mg/kg LPS (E. Coli 055:B5). Catheters are flushed with 2.5 mL/kg of normal injectable saline. Blood is collected via cardiac puncture 90 minutes after LPS challenge. Plasma is prepared using lithium heparin separation tubes and frozen at −80° C. until analyzed. TNF-α levels are determined using a rat specific TNF-α ELISA kit (Busywork). The ED50 values are calculated as the dose of the PDE4 inhibitor of the invention at which the TNF-α production is reduced to 50% of the control value.

Data set [2] deals with Phosphodiesterase 4 enzyme. Kind of data set: Inhibition of PDE4. Type of data set: biochemical. The following applies: PDE4 purified from U937 human monocytic cells; 1 μM cAMP, 45 min at 30° C. As for the experimental part: Phosphodiesterase 4 enzyme was purified from U937 human monocytic cells by gel filtration chromatography, and phosphodiesterase reactions were carried out as previously described. See, e.g., Muller et al., Bioorg. Med. Chem. Lett., 1998, 8(19): 2669-2674. Briefly, reactions were carried out in 96-well deep-well plates in 50 mM Tris HCl pH 7.5, 5 mM MgCl2, 1 μM cyclic adenosine monophosphate (cAMP), plus 10 nM [^3H]-cAMP for 45 min at 30° C. The reactions were terminated by boiling, treated with 1 mg/ml snake venom, and separated using AG-1X8 ion exchange resin (BioRad). Reactions consumed less than 15% of available substrate.

Data set [3] is described as follows: Aqueous solubility. The format is physicochemical. The settings on record: water (aqueous). The procedure: Thus, there exists a need for alternative formulations of Compound A in order to increase the bioavailability of the drug upon oral administration. Provided herein are oral dosage forms addressing this need.
The above method results in a physically stable solid dispersion of Compound A having an aqueous solubility of about 2 μg/mL.

Structures are written as SMILES. Converted amounts (≈) assume the structure as drawn.

The ED50 is the midpoint of the dose-response relation. The term IC50 denotes the concentration needed to halve the response being measured. Lower therefore signals inhibition by little substance. In general, solubility refers to the concentration that dissolves in the medium under given conditions. The low end stands for a poorly soluble substance, the high end for a readily soluble substance. Turning to `CCOc1cc([C@@H](CS(C)(=O)=O)N2Cc3cccc(NC(=O)C4CC4)c3C2=O)ccc1OC` [Compound A, Cyclopropanecarboxylic acid {2-[(1S)-1-(3-ethoxy-4-methoxy-phenyl)-2-methanesulfonyl-ethyl]-3-oxo-2,3-dihydro-1H-isoindol-4-yl}-amide], the ED50 in data set [1] was around 7.8 µg/kg. This compound gave an IC50 in data set [2] of 105 nM. The same compound showed a solubility in data set [3] of around 2 µg/mL (≈ 4.23 µM).
